Read-outs that look alike come from different tables or passages of the source.
Biological target: T1, human LPA1 (Homo sapiens, UniProt Q92633)
T1 construct: expressed in transfected cells; host or cells: CHO-K1
Assay: In vitro LPA1 calcium flux antagonist assay - Bioduro protocol
Assay type: cell-based
Conditions: CHO-K1 cells overexpressing human LPA1 and G15a, LPA challenge at EC80
Outline: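 Calcium mobilization read on FLIPR after EC80 LPA was added to compound-pretreated (30 min) CHO-K1 cells co-expressing human LPA1 and G15a. Cells were starved 4 h and dye-loaded with Fluo-8 AM/2.5 mM probenecid in HBSS-Hepes; inhibition normalized between DMSO and LPA-control RFU.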

[1] = calcium mobilization on FLIPR Tetra, read-out: IC50
[2] = Table B3, read-out: Activity (IC50 class)

T1 sequence (Q92633 whole entry): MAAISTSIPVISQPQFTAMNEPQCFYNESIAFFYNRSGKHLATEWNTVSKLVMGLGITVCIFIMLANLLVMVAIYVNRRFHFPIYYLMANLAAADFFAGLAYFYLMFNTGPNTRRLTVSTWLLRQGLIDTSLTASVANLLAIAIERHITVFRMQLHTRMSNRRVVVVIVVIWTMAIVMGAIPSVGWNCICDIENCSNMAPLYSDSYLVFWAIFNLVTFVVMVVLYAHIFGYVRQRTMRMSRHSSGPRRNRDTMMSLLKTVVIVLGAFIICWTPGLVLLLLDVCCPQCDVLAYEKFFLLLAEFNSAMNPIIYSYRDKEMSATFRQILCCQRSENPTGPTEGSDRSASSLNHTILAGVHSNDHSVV

Compound	IC50 [1] [nM]	IC50 [2] [nM]
COc1cc(-c2ccc(NC3(C(=O)O)CCOCC3)cc2COC2CCCC2)c(Cl)c(OC)c1C#N [Compound 262]	30.8	< 100
COc1cc(-c2ccc(NC3(C(=O)O)CCOCC3)cc2COC2CCC2)c(F)c(OC)c1C [Compound 263]	60.4	< 100
CCOc1cccc(-c2ccc(NC3(C(=O)O)CCOCC3)cc2COC2CCCC2)c1Cl [Compound 264]	5.42	< 100
O=C(O)C1(Nc2ccc(-c3cccc(OC4CC4)c3F)c(COC3CCCC3)c2)CCOCC1 [Compound 265, 4-((2-((cyclopentyloxy)methyl)-3′-cyclopropoxy-2′-fluoro-[1,1′-biphenyl]-4-yl)amino)tetrahydro-2H-pyran-4-carboxylic acid]	12	< 100
CCOc1c(F)ccc(-c2ccc(NC3(C(=O)O)CCOCC3)cc2COC2CCCC2)c1F [Compound 266]	142	100 to 1000
CCOc1cccc(-c2ccc(NC3(C(=O)O)CCOCC3)cc2CCC2CCOC2)c1F (stereo not shown) [Compound 267]	68	< 100
COc1c(C)c(OC)c(F)c(-c2ccc(NC3(C(=O)O)CCOCC3)cc2COC2CCCC2)c1F [Compound 270]	79.8	< 100
COc1cc(-c2ccc(NC3(C(=O)O)CCOCC3)cc2COC2CCCC2)c(F)c(OC)c1C(C)=O [Compound 271]	21.4	< 100
CCOc1cccc(-c2ccc(NC3(C(=O)O)CCOCC3)cc2CCC2CCCC2)c1F [Compound 272]	6.96	< 100
COc1cc(-c2c(COC3CCCC3)cc(NC3(C(=O)O)CCOCC3)cc2C(F)F)cc(OC)c1C [Compound 273]	17.1	< 100
COc1cc(-c2ccc(NC3(C(=O)O)CCOCC3)cc2COC2CCCC2)cc(OC)c1C(F)F [Compound 274]	28	< 100
COc1cc(-c2c(COC3CCCC3)cc(NC3(C(=O)O)CCOCC3)cc2C(F)(F)F)cc(OC)c1C [Compound 275]	229	100 to 1000
COc1cc(-c2ccc(NC3(C(=O)O)CCOCC3)cc2COC2CCCCC2)c(F)c(OC)c1C [Compound 276]	25.4	< 100
CC(C)COc1cccc(-c2ccc(NC3(C(=O)O)CCOCC3)cc2COC2CCCC2)c1F [Compound 277]	72.7	< 100
CCNc1cccc(-c2ccc(NC3(C(=O)O)CCOCC3)cc2COC2CCCC2)c1F [Compound 278, 4-((2-((cyclopentyloxy)methyl)-3′-(ethylamino)-2′-fluoro-[1,1′-biphenyl]-4-yl)amino)tetrahydro-2H-pyran-4-carboxylic acid]	36.6	< 100
CCOc1cccc(-c2ccc(NC3(C(=O)O)CCOCC3)cc2COC2CC2)c1C(F)F [Compound 279, 4-((2-(cyclopropoxymethyl)-2′-(difluoromethyl)-3′-ethoxy-[1,1′-biphenyl]-4-yl)amino)tetrahydro-2H-pyran-4-carboxylic acid]	4.19	< 100
COc1cc(-c2ccc(OC3(C(=O)O)CCOCC3)cc2CO[C@H]2CCOC2)c(F)c(OC)c1C [Compound 281]	110	100 to 1000
CCCc1cccc(-c2ccc(NC3(C(=O)O)CCOCC3)cc2COC2CCCC2)c1F [Compound 286]	9.87	< 100
CCOc1cc(OC)cc(-c2ccc(NC3(C(=O)O)CCOCC3)cc2COC2CCCC2)c1F [Compound 287]	2.46	< 100
CCOc1cc(OC)cc(-c2ccc(NC3(C(=O)O)CCOCC3)cc2COC2CC2)c1F [Compound 288]	11.9	< 100
O=C(O)C1(Nc2ccc(-c3cccc(OC4CC4)c3F)c(COC3CC3)c2)CCOCC1 [Compound 289]	51	< 100
COc1cc(OC2CC2)c(F)c(-c2ccc(NC3(C(=O)O)CCOCC3)cc2COC2CC2)c1 [Compound 290]	15.8	< 100

Compound	IC50 [1] [nM]	IC50 [2] [nM]
O=C(O)C1(Nc2ccc(-c3cccc(OC4CCC4)c3F)c(COC3CC3)c2)CCOCC1 [Compound 291]	173	< 100
COc1cc(OC)c(F)c(-c2ccc(NC3(C(=O)O)CCOCC3)cc2COC2CC2)c1 [Compound 292]	117	100 to 1000
COc1cc(-c2ccc(NC3(C(=O)O)CCOCC3)cc2COC2CC2)c(Cl)c(OC)c1C [Compound 293]	5.72	< 100
CCOc1cccc(-c2ccc(NC3(C(=O)O)CCOCC3)cc2CCC2CC2)c1C(F)F [Compound 296]	2.4	< 100
CCOc1cc(OC)c(F)c(-c2ccc(NC3(C(=O)O)CCOCC3)cc2COC2CCCC2)c1 [Compound 297]	137	100 to 1000
COc1cc(-c2ccc(NC3(C(=O)O)CCOCC3)cc2COC2CCCC2)c(F)c(OC)c1C(C)O (stereo not shown) [Compound 299]	38.4	< 100
COc1cc(-c2ccc(NC3(C(=O)O)CCOCC3)cc2COC2CCCC2)c(F)c(OC)c1C(C)O (stereo not shown) [Compound 300]	35.3	< 100
O=C(O)C1(Nc2ccc(-c3cccc(OC4CC4)c3C(F)F)c(COC3CCCC3)c2)CC1 [Compound 301]	12.5	< 100
COc1cc(OC)c(C(F)F)c(-c2ccc(NC3(C(=O)O)CCOCC3)cc2COC2CC2)c1 [Compound 302]	85.2	100 to 1000
COc1cc(OC)c(Cl)c(-c2ccc(NC3(C(=O)O)CCOCC3)cc2COC2CC2)c1 [Compound 303]	12.3	< 100
O=C(O)C1(Nc2ccc(-c3cccc(OC4CC4)c3)c(COC3CC3)c2)CCOCC1 [Compound 304]	5.64	> 1000
O=C(O)C1(Nc2ccc(-c3cccc(CCO)c3F)c(COC3CC3)c2)CCOCC1 [Compound 305]	711	> 1000
CCOc1cccc(-c2ccc(NC3(C(=O)O)CCOCC3)cc2COC2CC2)c1F [Compound 306]	165	100 to 1000
CCCOc1cccc(-c2ccc(NC3(C(=O)O)CCOCC3)cc2COC2CC2)c1F [Compound 307]	58.4	< 100
COc1cc(-c2c(C)cc(NC3(C(=O)O)CCOCC3)cc2CCC2CCOC2)cc(OC)c1C (stereo not shown) [Compound 308]	23.6	< 100
COc1cc(-c2c(C)cc(NC3(C(=O)O)CCOCC3)cc2CCC2CCOC2)cc(OC)c1C (stereo not shown) [Compound 309]	37.7	< 100
COc1cc(-c2ccc(NC3(C(=O)O)CCOCC3)cc2COC2CC2)c(C(F)F)c(OC)c1C [Compound 310]	6.93	< 100
COCc1cccc(-c2ccc(NC3(C(=O)O)CCOCC3)cc2COC2CC2)c1C(F)F [Compound 311]	148	100 to 1000
CCOc1c(C)c(OC)cc(-c2ccc(NC3(C(=O)O)CCOCC3)cc2COC2CC2)c1F [Compound 312]	5.44	< 100
CCOc1c(C)ccc(-c2ccc(NC3(C(=O)O)CCOCC3)cc2COC2CC2)c1C [Compound 313]	5.93	< 100
COc1cc(-c2ccc(NC3(C(=O)O)CCOCC3)cc2COC2CC2)c(C(F)F)c(OC)n1 [Compound 314]	37	< 100
CCOc1cc(OC)cc(-c2ccc(NC3(C(=O)O)CCOCC3)cc2COC2CCCC2)c1 [Compound 315]	24	< 100

Source: patent US11884627B2, “Compounds and compositions for treating conditions associated with LPA receptor activity” (Lhotse Bio, Inc., priority 2022, dated 2024)
